Entries after “also recorded” stand apart in the source; their conditions may differ.
What was measured:
Aβ42 [1] = target: T1, Aβ42 (Homo sapiens, UniProt P05067); assay: ThT-based kinetic assay of Aβ42 aggregation; type: biochemical; settings: for effect on Aβ42 oligomerization/fibrillation (ThT): equimolar ratio; for factor by which Aβ42 aggregation is delayed (rel. t50): 20 μM Aβ42, equimolar ratio
T1 construct: Cleavage of APP results in several Aβ isoforms; The predominant species are Aβ42 and Aβ40; purchased Anaspec (Fremont, Calif., USA)
Source text: The aggregation of Aβ42 was monitored using an established exogenous dye, Thioflavin T (ThT) that intercalates between the amyloid fibers along the perpendicular axis without affecting the kinetics of amyloid formation. (see Wolfe, L. S.; Calabrese, M. F.; Nath, A.; Blaho, D. V.; Miranker, A. D.; Xiong, Y. Proc. Natl. Acad. Sci. U.S.A. 2010, 107, 16863-16868; Levine, H. Protein Sci. 1993, 2, 404-410). A representative ThT-based kinetic assay results are depicted in FIG. 2. The oligomerization reaction of Aβ42 was initiated by diluting a 1 mM stock solution of Aβ42 (in DMSO) to a concentration of 20 μM in phosphate buffer (150 mM KCl, 50 mM NaPi, pH 7.4). Aβ42 fibrillation is a nucleation-dependent polymerization process and is characterized by a sigmoidal curve consisting of a lag phase, an elongation phase, and a plateau phase (FIG. 2a). The kinetic reaction was quantified by extracting t50, which is the time required to reach 50% of the maximum fluorescence that results from fibrillation. Under standard conditions the tso for Aβ42 fibrillation was 2.1±0.2 h (FIG. 2a and FIG. 8).
(§1) Kinetic assays were conducted on a FlexStation 3 Multi-Mode Microplate reader from Molecular Devices (Sunnyvale, Calif., USA). Experiments were conducted in triplicate in a 96-well plate with a final volume of 200 μL per well. Every measurement was an average of 50 readings. The aggregation of an amyloidogenic peptide (Aβ40, Aβ42, or IAPP) was initiated by the addition of the peptide from a stock solution (in DMSO, 0.5-1 mM) to phosphate buffer. The final concentration of each peptide was different based on their aggregation. The stoichiometry of ThT dye for each peptide was 0.5:1 (ThT:peptide). Peptide aggregation was monitored by ThT fluorescence (λex=445 nm and λem=485 nm). The blank sample contained all the components of the peptide samples except the peptide. The sample data were processed by subtracting the fluorescence of the blank sample. The fluorescence intensity data was then normalized by setting the maximum value to 1.
(§2) Kinetic assays in the presence of the compounds of the invention were conducted under the same conditions. The small molecules were added from a stock solution (1 mM or 10 mM in DMSO) to keep the final concentration of DMSO less than 1.0% (v/v). Small molecules were added to the wells with ThT and buffer and mixed gently with a pipette before adding the peptide. To keep the conditions identical, an equal amount of DMSO was added to the wells with the peptide-only control reactions.
(§3) Kinetic profiles were processed using Origin (version 9.1). Kinetic curves were fit using the built-in sigmoidal fit. Each run was fit independently to extract the t50 (time required to reach 50% of the maximum fluorescence intensity). Error bars represent standard deviations from the mean of at least three independent experiments.
In the delayed addition experiments, where the oligopyridylamides were added at various time points during Aβ amyloid reaction, the conditions were same (as used for the assays where Aβ was preincubated with the oligopyridylamides). The Aβ oligomerization process was initiated by dissolving Aβ into buffer solution and then oligopyridylamides were added to this solution at indicated time points (depend on the assay) at an equimolar ratio.

Aβ42 [2] = target: T1, Aβ42; assay: ThT-based kinetic assay of Aβ42 aggregation; type: biochemical; settings: 5 μM, 1:1 (Ligand:Aβ42); without ligand 100%
[3] = test system: Aβ42 mediated toxicity in mouse neuroblastoma (N2a) cells; assay: Aβ42 mediated toxicity in Neuro-2a cells (MTS cell viability); type: cell-based; settings: for effect on Aβ42 mediated cytotoxicity: equimolar ratio, Neuro-2a cells; for rank order for the antagonist activity: Aβ42 mediated cytotoxicity and aggregation, 5 μM, 1:1 (FIG. 26a)
Description: Cell viability was determined using a CellTiter 96® AQueous One Solution Cell Proliferation Assay (MTS) kit (Promega), which measures the reduction of the tetrazolium compound MTS (3-(4,5-dimethylthiazol-2-yl)-5-(3-carboxymethoxyphenyl)-2-(4-sulfophenyl)-2H-tetrazolium, inner salt) to soluble formazan by mitochondrial dehydrogenase enzyme in living cells. Formazan can be measured at 490 nm according to the manufacturer's instructions.
Neuro-2a cells (ATCC® […]) were maintained in serum-containing media [Dulbecco's Modified Eagle's Medium—high glucose (DMEM, Sigma) supplemented with 10% foetal bovine serum (FBS), 4 mM L-Glutamine (Sigma), and 1% penicillin/streptomycin (Sigma)] in 5% CO2 at 37° C. Once the cells reached ˜95% confluence, they were split (using 0.25% trypsin-EDTA, Sigma, St. Louis, USA), seeded at a density of 5×10^3 cells/well in 100 μL complete medium in 96-well plates and cultured for 48 h. Thereafter, the media was removed, the cells washed with phosphate buffered saline (PBS), and 90 μL of serum-free DMEM was added to the wells. A solution (A) containing 50 μM Aβ42 in NaOH (pH 10.5) was prepared and kept on ice, and a solution (B) containing 50 μM of the oligopyridylamide compound, H2O (2.33 μL/well) and 1× and 10×PBS was prepared and kept at room temperature. The solutions were combined, vortexed and 10 μL of this solution immeadiatly added to each well. The final concentrations in the wells were: 5 μM Aβ42, 5 μM oligopyridylamide, 200 μM NaOH, 0.1×PBS and 0.5% (v/v) DMSO.
(§4) To investigate the toxic effect of the peptide alone on cell viability, solution (B) without the oligopyridylamide compound was mixed with solution (A), while the effect of the oligopyridylamide compound alone was determined by adding solution (A) without peptide to solution (B). The effect of oligopyridylamides on seed-catalyzed Aβ42 aggregation was probed by preparing an additional solution (C) containing 0.5 μM seeds. The volume contributed by solution (C) was taken into account in preparing solution (B). Solution (C) was mixed with solution (B), and the resulting mixture was then added to solution (A) shortly before addition to the wells. To study the effect of oligopyridylamides on the oligomeric states of Aβ42, solution (A) was mixed with solution (B) without inhibitor and incubated at room temperature for 1, 2 or 3 h. Subsequently, 50 μM oligopyridylamides was added to the mixture, which was then immediately added to the cells. After culturing for 72 h in 5% CO2 at 37° C., 20 μL of MTS reagent was added to each well. The MTS reagent was incubated for 2.5 h at 37° C., and absorbance of the soluble formazan product (λ=490 nm) of MTS reduction was measured on a Synergy H1MF Multi-Mode microplate-reader (BioTek, Winooski, Vt., USA), with a reference wavelength of 650 nm to subtract the background. Wells treated with a solution containing serum-free DMEM, 200 μM NaOH, 0.1×PBS and 0.5% (v/v) DMSO served as control. MTS reduction was determined from the ratio of the absorbance of the treated wells to the control wells. Each data point represents an average of four independent quadruplet-well trials.

Neuro-2a cells = assay: Effect of compound alone on Neuro-2a cell viability; type: cell-based, mouse; settings: matched cytotoxic experimental conditions, no Aβ42
Description: as §4, with “After culturing for 72 h in 5% CO2 at 37° C., 20 μL of MTS reagent was added to each well.” left out

[4] = test system: IAPP mediated toxicity in rat INS-1 cells; assay: IAPP mediated toxicity in INS-1 cells; type: cell-based; settings: equimolar ratio, rat INS-1 cells
IAPP = target: T2, IAPP (Homo sapiens, UniProt P10997); assay: ThT-based kinetic assay of IAPP aggregation; type: biochemical; settings: equimolar ratio (IAPP 10 μM, FIG. 25c, 26c, 27m)
T2 construct: purchased Anaspec (Fremont, Calif., USA)
T2 sequence (P10997 34-70 limits assumed): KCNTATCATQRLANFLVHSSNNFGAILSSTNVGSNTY
Description: as §1, §2, §3

T1 sequence (P05067 672-713 limits assumed): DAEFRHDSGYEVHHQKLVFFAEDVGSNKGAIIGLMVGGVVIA

Row | Compound | effect on Aβ42 oligomerization/fibrillation (ThT) (Aβ42 [1]) | effect on Aβ42 mediated cytotoxicity [3] | toxicity of compound alone to Neuro-2a cells (Neuro-2a cells) | further results
1 | COC(=O)c1ccc([N+](=O)[O-])c(OC2CCCCC2)n1 [ADH-5] | No noticeable effect | – | – | –
2 | CCCCOc1nc(C(=O)Nc2ccc(C(=O)Nc3ccc(C(=O)OC)nc3OCCCN)nc2OCCCN)ccc1[N+](=O)[O-] [ADH-40] | – | – | not toxic | rank order for the antagonist activity [3]: ADH41>ADH46>ADM-40≥ADM-45A
3 | COC(=O)c1ccc(NC(=O)c2ccc(NC(=O)c3ccc([N+](=O)[O-])c(OCc4ccccc4)n3)c(OCC(=O)O)n2)c(OCC(=O)O)n1 [ADH-27] | – | – | not toxic | –
4 | COC(=O)c1ccc(NC(=O)c2ccc([N+](=O)[O-])c(OCCCN)n2)c(OCCCN)n1 [ADH-44] | – | – | – | factor by which Aβ42 aggregation is delayed (rel. t50) (Aβ42 [1]): 2.4±0.3
5 | CCOc1nc(C(=O)Nc2ccc(C(=O)Nc3ccc(C(=O)OC)nc3OCCCN)nc2OCCCN)ccc1[N+](=O)[O-] [ADH-45A] | – | – | not toxic | rank order for the antagonist activity [3]: ADH41>ADH46>ADM-40≥ADM-45A
6 | COC(=O)c1ccc(NC(=O)c2ccc(NC(=O)c3ccc([N+](=O)[O-])c(OCCCN)n3)c(OCCCN)n2)c(OCCCN)n1 [ADH-19] | effective in blocking | – | – | factor by which Aβ42 aggregation is delayed (rel. t50) (Aβ42 [1]): 3.2±0.3
7 | COC(=O)c1ccc([N+](=O)[O-])c(OCCCN)n1 [ADH-3] | No noticeable effect | – | – | –
8 | CCCCCCOc1nc(C(=O)Nc2ccc(C(=O)Nc3ccc(C(=O)OC)nc3OCCCN)nc2OCc2ccccc2)ccc1[N+](=O)[O-] [ADH-52] | – | effective at rescuing cells | not toxic | –
9 | COC(=O)c1ccc(NC(=O)c2ccc(NC(=O)c3ccc([N+](=O)[O-])c(OCC(C)C)n3)c(OCCCN)n2)c(OCCCN)n1 [ADH-46] | – | effective at rescuing cells | – | rank order for the antagonist activity [3]: ADH41>ADH46>ADM-40≥ADM-45A

Continued, in another order:

Row | effect on Aβ42 oligomerization/fibrillation (ThT) (Aβ42 [1]) | Compound | effect on Aβ42 mediated cytotoxicity [3] | toxicity of compound alone to Neuro-2a cells (Neuro-2a cells) | further results
10 | weak inhibitor | COC(=O)c1ccc(NC(=O)c2ccc(NC(=O)c3ccc([N+](=O)[O-])c(OCCCN)n3)c(OCc3ccccc3)n2)c(OCCCN)n1 [ADH-37] | did not have a noticeable effect | – | ThT fluorescence intensity of the amyloid reaction (Aβ42 [2]): 74%
11 | accelerated | COC(=O)c1ccc(NC(=O)c2ccc(NC(=O)c3ccc([N+](=O)[O-])c(OC(C)C)n3)c(OCc3ccccc3)n2)c(OCCCN)n1 [ADH-39] | effective at inhibiting cytotoxicity; also recorded: effective at rescuing cells; also recorded: equally effective | not toxic | –
12 | no effect | COC(=O)c1ccc(NC(=O)c2ccc(NC(=O)c3ccc([N+](=O)[O-])c(OCC(=O)O)n3)c(OCc3ccccc3)n2)c(OCC(=O)O)n1 [ADH-17] | no effect | not toxic | effect on IAPP mediated toxicity [4]: completely inhibits; effect on IAPP fibrillation / amyloid formation (ThT) (IAPP): completely inhibits
13 | effective in blocking | COC(=O)c1ccc(NC(=O)c2ccc([N+](=O)[O-])c(OCc3ccccc3)n2)c(OCCCN)n1 [ADH-43] | – | – | factor by which Aβ42 aggregation is delayed (rel. t50) (Aβ42 [1]): 3.3±0.4

— US10723716B2, “Alpha-helix mimetics as modulators of Abeta self-assembly” (New York University, priority 2016, dated 2020)
